Data on 12 compounds can be found in paper PMC7707092, “Discovery and characterization of ORM‐11372, a novel inhibitor of the sodium‐calcium exchanger with positive inotropic activity” (British Journal of Pharmacology, 2020).

In brackets after ≈: the same amount, converted by molar mass. Read-outs that look alike come from different tables or passages of the source.

One series concerns the target T1, human NCX 1.1 (Homo sapiens, UniProt P32418).
T1 construct: expressed in transfected cells
Briefly: Fluorescence screening assay for hNCX 1.1 inhibition (reverse mode, Sf9 cells). It counts as cell-based. As to conditions: for IC50: Sf9 cells expressing human NCX1.1, reverse mode, fluorescence, n=3 assays. The protocol: Spodoptera frugiperda (Sf9; RRID:CVCL_0549) cells are widely used for the transient and stable expression of recombinant proteins. Here, Sf9 cells were stably transfected with human NCX 1.1 and maintained in spinner flasks with insect cell culture medium (TNM‐FH), supplemented with 10% FBS, antibiotic–antimycotic solution, and 50 μg·ml^−1 of blasticidin at 28°C in a non‐humidified, CO2‐free atmosphere. The Sf9 cell suspension was subcultured three times a week.
NCX reverse mode activity was stimulated via a 50% dilution of the extracellular Na^+ level using the internal pipettor of FLEXstation, a fluorescence imaging plate reader (Molecular Devices, USA), while simultaneously monitoring intracellular calcium levels. After dilution, the concentration of other ions remained the same, but Na^+ concentration was diluted to the half of original concentration of 172 to 86 mM. For Sf9 insect cells, normal extracellular Na^+ ion concentration is 172 mM. Typically, 50 μl of a solution containing 150,000–200,000 Sf9–NCX cells was loaded onto each well of a 96‐well plate. Cells were preincubated with the intracellular calcium dye Fluo‐4 and Fluo‐6, and the concentrations of the test compound (three replicates) were determined for about 1 h at room temperature before experimentation. The extracellular solution contained (in mM) 172 NaCl, 10 HEPES, 1 CaCl2, 1.2 MgCl2, 0.33 NaH2PO4, 5 glucose, and 5 probenecid. The pH was adjusted to 7.4 with NaOH. The extracellular Na^+ was diluted by the addition of a Na^+‐free extracellular solution (containing in mM: 147 N‐methyl‐D‐glucamine (NMDG), 10 HEPES, 1 CaCl2, 1.2 MgCl2, 0.33 NaH2PO4, and 5 glucose with the pH adjusted by HCl to 7.4)‐induced robust and reproducible elevation of intracellular calcium. The osmolarity of both solutions was adjusted to 340–355 mOsm in order to match the Sf9 cell media osmolarity. In each plate, the IC50 determination for each test compound was based on relative fluorescence changes in comparison with control and 5‐mM nickel acetate‐induced NCX inhibition.

Another series has as its target hERG (Homo sapiens, UniProt Q12809). Briefly: hERG IC50 of Table 1 / Table S2 (method not assigned). It counts as cell-based. As to conditions: n=4 assays.
A short description of the next series: Solubility. It counts as physicochemical. As to conditions: pH 7.4 phosphate buffer; for solubility: phosphate buffer, pH 7.4, aqueous buffer.
A further series deals with L‐type calcium channel. Kind of series: L‐type calcium channel inhibition, fluorescence assay in IMR‐32 cells. It counts as cell-based, human. As to conditions: KCl depolarization, n=4 assays, read-out: L‐type Ca^2+ IC50. The protocol:
CHO cells stably expressing either hERG1a (KV11.1) channels (KCNH2; RRID:CVCL_H512) or human 5‐HT2B receptors were cultured at 37°C in a 5% CO2/95% air atmosphere in the Ham's Nutrient Mixture F‐12 (HAM F‐12) medium supplemented with 10% FBS (heat inactivated), 100 μg·ml^−1 of hygromycin B (Invitrogen), and 100 μg·ml^−1 of geneticin or 100 IU·ml^−1 of penicillin and 100 IU·ml^−1 of streptomycin, 25‐mM HEPES, 500 μg·ml^−1 of geneticin, and 250 μg·ml^−1 of Zeocin®. Adhered cells were detached using either Detachin® solution or trypsin and replated twice a week. HEK 293 (RRID:CVCL_0045) and IMR‐32 cells (CCL‐127; RRID:CVCL_0346) were cultured similarly but maintained instead in DMEM, supplemented with 10% FBS (heat inactivated), 100 IU·ml^−1 of penicillin and 100 IU·ml^−1 of streptomycin, and 25‐mM HEPES, and in the case of the IMR‐32 cell line, with minimum essential medium (MEM) non‐essential amino acids. IMR‐32 cells are derived from a human neuroblastoma and endogenously express L‐type (CaV1.x) calcium channel (Sher, Gotti, Pandiella, Madeddu, & Clementi, 1988).
Undifferentiated IMR‐32 cells were harvested, centrifuged, and resuspended in a probenecid‐Ringer solution consisting (in mM) 150 NaCl, 3 KCl, 1.2 MgCl2, 1 CaCl2, 20 HEPES, 5 glucose and 2.5 probenecid (pH 7.4 adjusted with NaOH, osmolarity 320–324 mOsm). We added 0.04% Pluronic F‐127 and Fluo‐4 to this solution, and after incubating the cells for 30 min at room temperature, these additives were removed from the probenecid‐Ringer solution by centrifugation and resuspension. The cell suspension was pipetted (250,000 cells in 75 μl per well) into a 96‐well plate, into which the test compound (75 μl per well at […] the final concentration; five concentrations with eight replicates) had already been added. The plate was centrifuged once (5 min, at 287 x g) to ensure that the cells were moved to the bottom of the wells. FLEXstation was then used to measure the increase in intracellular calcium at 37°C, following depolarization, which was induced by the addition (50 μl per well) of a KCl‐Ringer solution containing (in mM) 200 KCl, 20 CaCl2, 1.2 MgCl2, 20 HEPES and 2.5 probenecid respectively (pH adjusted to 7.4 with KOH, with an osmolarity of 320–324 mOsm).

For the next series, the system named is healthy rats. Briefly: In vivo haemodynamics in healthy rats (supplement). On the set-up: species or system rat. The source says:
In vivo haemodynamics in healthy rats
Experimental Animals and General Study Protocol
Rat was selected to the study as it is the most widely used rodent species in the toxicology studies performed for the small molecules during the drug development. […]
All animal experiments were made according to European Community Guidelines for the use of experimental animals and approved by Finnish National Animal Experiment Board. All studies complied with the ARRIVE guidelines, (NC3Rs Reporting Guidelines Working Group, 2010).
Specific pathogen free animals were housed in half -barrier rooms where special protecting clothing for personnel was required. Animal rooms were cleaned regularly 3 times per week and cages and bottles were […]
changed regular intervals once a week. Temperature was maintained at 22 ± 2°C and humidity at 55 ± 15%.
Light-dark cycle was lights on from 06.00 to 20.00h.
Male Sprague-Dawley rats (Harlan, Netherlands B.V.) were housed in polycarbonate cages (Makrolon® IV with stainless steel wire mesh lids). Maximally 5 rats were housed per cage with aspen chip bedding (Tapvei Ky, Kaavi, Finland). Rats had free access to water (twice filtered, Espoon Vesi) and rodent diet (SDS RM1
(P) SQC pelleted diet, Special Diet Services Ltd, Witham, England). Acclimation period before experiments was at least 5 days. Healthy 10-12 weeks aged weighing 300-400 g rats were randomized to ORM-11372, dobutamine or vehicle group.
At the end of the haemodynamic experiments, rats were terminated with an overdose of pentobarbital.
Anesthesia and ventilation
Rats were anaesthetised with isoflurane (2.25-2.5 %, Baxter) in carbogen (95 % O2 and 5 % CO2) and nitrous oxide (1:1) using a small rodent ventilator (Ugo Basile 7025, ~10 ml/kg, 60 strokes/min). The rats were infused with 0.9 % NaCl in […] at the stabilization and baseline level. Animals were placed on a heating table (+38°C). Tracheas were cannulated.
Systemic blood (SP) and left ventricular pressures (LVP) were measured with pressure transducers (BP:
Isotec, Hugo Sachs Elektronic, Germany; LVP: Mikro-Tip transducer SPR-249, Millar Instruments, USA). The signal was amplified (DC-bridge amplifier type 660, Hugo Sachs Elektronik, Germany), digitised (I/O connector block type SCB-68, National Instruments, USA), recorded and analysed (IHME 1.0.9, Fision Ltd, Finland). Left ventricular inotropic effect (LV +dP/dtmax) and relaxation (LV -dP/dtmin) and heart rate (HR) were analysed from LVP signal.
Blood sampling for the evaluation of plasma levels of the drug
At the end of each infusion, the blood samples (300-500 µl) were taken into chilled EDTA polypropylene tube (CapiJect®, Terumo) and centrifuged (4000 rpm, 10 min, at 4°C). Plasma was immediately frozen in polypropylene tubes and stored at –20°C. ORM-11372 and dobutamine were extracted from plasma samples using a liquid–liquid extraction and analysed using liquid chromatography–tandem mass spectrometry (Agilent Technologies series 1100 liquid chromatographic system and a Sciex LC-MS/MS API 4000 mass spectrometry). The lower limit of quantification for total plasma concentrations were 32.0 and 5.00 ng/ml from total for ORM-11372 and dobutamine, respectively. […]
The effects of dobutamine on blood pressure varies partially due to the use of racemate as active ingredient in the pharmaceutical formulation. (-)-dobutamine is α1-agonist and therefore causes increases in cardiac output and peripheral resistance. (+)-dobutamine acts via β1- and β2-adrenoceptors which leads to increase in heart rate and reduction in blood pressure 16.
Figure S20 Haemodynamics in healthy rats
Effects of ORM-11372 and dobutamine on haemodynamics in isoflurane anesthetized 10-12 weeks aged male Sprague-Dawley rats (Harlan, Netherlands B.V.) weighing 300-400 g. Shown are mean ± SEM and individual effects on the left ventricular contractility (LV+dP/dtmax, panel A), relaxation (LV-dP/dtmax, panel B), heart rate (panel C), and systolic arterial blood pressure (SAP, paned D). […]

Another series has as its system NCX. The arrangement: method as in Jost et al., 2013; Kohajda et al., 2016. As to conditions: Dog, reference not given, ref Jost et al., 2013, Kohajda et al., 2016, cited from earlier work.
A further series has as its target hNCX1 (Homo sapiens, UniProt P32418). Briefly: Confirmatory fluorescence assay for hNCX1 inhibition (forward mode, HEK293 cells, Charles River). It counts as cell-based. As to conditions: HEK293, forward mode, Table S2; read-out: hNCX1-HEK IC50. Here is the method:
A confirmatory hNCX1 inhibition assay was performed in Charles River Laboratories, Cleveland. Briefly, HEK293 cells stably expressing hNCX1 were plated in 384‐well black wall, clear‐bottom microtitre plates and the next day loaded with Fluo‐8 for 30 min at 37°C. A plate was inserted into a FLIPR^TETRA, and a baseline was recorded during a preincubation period where test compound or vehicle in a Na^+‐free HB‐PS containing thapsigargin (6 μM) and […] (30 μM) was added to each well for ~5 min. Next, the NCX1 stimulation period was recorded in which Na^+‐containing HB‐PS (with 2‐μM thapsigargin and 10‐μM FCCP) was added. The experiments were performed at room temperature. The kinetic data generated were reduced for each well to maximum relative fluorescence units (RFU) minus minimum RFU after subtracting bias based on the first sample. The mean of the max–min RFU values during the stimulation period for the 3–4 replicates at each concentration on a plate was then plotted versus concentration and fitted to a Hill equation.

hERG, sequence (Q12809 whole entry): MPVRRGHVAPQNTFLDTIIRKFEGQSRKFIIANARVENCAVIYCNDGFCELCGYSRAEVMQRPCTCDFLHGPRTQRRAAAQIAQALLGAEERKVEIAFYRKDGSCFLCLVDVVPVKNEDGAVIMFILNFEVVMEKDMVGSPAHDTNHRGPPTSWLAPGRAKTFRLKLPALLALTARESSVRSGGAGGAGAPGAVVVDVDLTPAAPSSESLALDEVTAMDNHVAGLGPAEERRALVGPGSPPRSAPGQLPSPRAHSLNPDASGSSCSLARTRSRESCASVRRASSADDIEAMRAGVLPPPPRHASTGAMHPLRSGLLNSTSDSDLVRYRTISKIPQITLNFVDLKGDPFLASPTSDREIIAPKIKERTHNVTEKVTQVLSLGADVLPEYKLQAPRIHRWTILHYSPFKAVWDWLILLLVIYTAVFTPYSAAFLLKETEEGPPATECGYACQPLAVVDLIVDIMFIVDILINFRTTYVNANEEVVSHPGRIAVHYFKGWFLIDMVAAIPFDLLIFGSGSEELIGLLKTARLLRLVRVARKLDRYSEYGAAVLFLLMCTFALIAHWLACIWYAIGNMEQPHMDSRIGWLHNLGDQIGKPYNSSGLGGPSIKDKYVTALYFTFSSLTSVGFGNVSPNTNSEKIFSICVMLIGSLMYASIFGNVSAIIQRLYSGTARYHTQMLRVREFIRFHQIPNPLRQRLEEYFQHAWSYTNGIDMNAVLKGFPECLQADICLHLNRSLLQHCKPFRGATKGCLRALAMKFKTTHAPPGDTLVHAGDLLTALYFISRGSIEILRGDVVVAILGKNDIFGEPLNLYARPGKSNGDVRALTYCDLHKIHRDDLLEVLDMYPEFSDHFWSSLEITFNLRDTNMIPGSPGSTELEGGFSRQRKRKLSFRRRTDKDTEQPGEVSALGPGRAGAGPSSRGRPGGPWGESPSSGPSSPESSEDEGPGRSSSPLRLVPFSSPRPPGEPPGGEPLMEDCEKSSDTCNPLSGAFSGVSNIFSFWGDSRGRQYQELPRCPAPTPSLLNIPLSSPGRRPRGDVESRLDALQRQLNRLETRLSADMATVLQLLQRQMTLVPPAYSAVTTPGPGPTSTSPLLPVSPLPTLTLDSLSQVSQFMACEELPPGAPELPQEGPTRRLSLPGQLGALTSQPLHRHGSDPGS

As for `Fc1ccc(NCc2ccc(-c3cccc(Cl)c3)o2)cc1Cl` [ORM‐11217], the values for the IC50 against human NCX 1.1 and at hERG were 210 nM and 14600 nM, respectively. Moreover, the solubility in “Solubility” (read-out: Solubility class) was 10 to 100 µg/mL (≈ 29.7 to 297 µM).
On human NCX 1.1, `Fc1ccc(NCc2csc(-c3ccccc3Cl)n2)cc1F` [ORM‐11863] showed a 50% inhibitory concentration (IC50) of 2.5 nM. Also, in the series “Solubility” (read-out: Solubility class), the solubility was under 10 µg/mL.
With `O=[N+]([O-])c1ccccc1-c1ccc(CNc2ccc(F)c(Cl)c2)o1` [ORM‐120407, 3-chloro-4-fluoro-N-((5-(2-nitrophenyl)furan-2-yl)methyl)aniline], on human NCX 1.1 (10 μM, fluorescence‐based assay, read-out: NCX1.1 inhibition), the inhibition at 10 µM amounted to 87%. The IC50 on human NCX 1.1 came to 231 nM; against hERG it was 2100 nM; in the series on L‐type calcium channel it was 3100 nM. The solubility in the series “Solubility” (read-out: Solubility) and in the series “Solubility” (read-out: Solubility class) was under 10 µg/mL in each case.
In the case of `Fc1ccc(NCc2coc(-c3ccccc3)n2)cc1Cl` [ORM‐11298], the IC50 against human NCX 1.1 is 31 nM; against hERG, over 10000 nM. Moreover, the solubility in the series “Solubility” (read-out: Solubility class) lay within 10 to 100 µg/mL (≈ 33 to 330 µM).
Consider `Fc1ccc(NCc2ccc(-c3ccccn3)o2)cc1F` [ORM‐11817], for which the IC50 was 3 nM on human NCX 1.1, 2400 nM on hERG and 10400 nM in the series with L‐type calcium channel. Besides, the solubility in the series “Solubility” (read-out: Solubility class) was under 10 µg/mL.
The compound `O=[N+]([O-])c1ccccc1-c1ccc(CNc2ccccc2)o1` [ORM‐11024] displayed an IC50 against human NCX 1.1 of 875 nM.
Turning to `CC(CCc1ccc(O)cc1)NCCc1ccc(O)c(O)c1` (stereo not shown) [dobutamine, reference compound], in the series with healthy rats, the “absolute maximum positive inotropic effect” value amounted to 59%, the “free plasma concentration achieving 25% positive inotropic effect” value was determined as 25 ± 1.6 nM, the “free plasma concentration at absolute maximum positive inotropic effect” value was 199 ± 17 nM and the “free plasma concentration at the 10±2% (ORM-11372) / 16±3% (dobutamine) inotropic effect” value was 16 ± 0.8 nM. In the series on healthy rats (at free plasma concentration 4±0.3 nM (ORM-11372), 16±0.8 nM (dobutamine)), this compound registered a positive inotropic effect of 16±3%. The “increase in heart rate” value in the series with healthy rats (free plasma concentration 96 nM) stood at 15±5%. Besides, in the series with healthy rats (free plasma concentration 848 nM), the “increase in heart rate” value is reported as 25±7%. Besides, in the series with healthy rats (free plasma concentrations 16 to 199 nM), the relaxation result was “no effects”.
`Fc1ccc(NCc2ccc(-c3ccc(Cl)cc3)o2)cc1Cl` [ORM‐11190] showed a 50% inhibitory concentration (IC50) on human NCX 1.1 of 204 nM.
Regarding `Fc1ccc(NCc2ccc(-c3cccnc3)o2)cc1F` [ORM‐11875], the IC50 against human NCX 1.1 was determined as 90 nM. The solubility in “Solubility” (read-out: Solubility class) lay within 10 to 100 µg/mL (≈ 34.9 to 349 µM).
For the compound `O=[N+]([O-])c1ccc(Oc2ccc3c(c2)CCC(c2ccccc2)O3)nc1` (stereo not shown) [ORM-10103], the IC50 in the series with NCX (read-out: IC50 NCX forward) was 960 nM; in the series with NCX (read-out: IC50 NCX reverse), 780 nM; against human NCX 1.1, 176 nM; on hNCX1 it was 1850 nM. In “Solubility”, the Solubility class entry is “Insoluble (insoluble less than 10 µg/ml)”.
As to `Fc1ccc(NCc2ccc(-c3ccccc3Cl)o2)cc1Cl` [ORM‐11165], the IC50 against human NCX 1.1 stood at 4 nM; on hERG, 9000 nM; in the series on L‐type calcium channel, 2000 nM. For the same compound, in the series “Solubility” (read-out: Solubility class), the solubility was under 10 µg/mL.
`O=[N+]([O-])c1cccc(-c2ccc(CNc3ccc(F)c(Cl)c3)o2)c1` [ORM‐11023] had an IC50 at human NCX 1.1 of 156 nM.
